# According to patent US8987250B2 (Gilead Sciences, Inc., priority 2012, dated 2015):
# Test system: HIV-IIIb
# Assay: Test A: Antiviral Assay in MT4 Cells
# Type: cell-based
# Settings: Human immunodeficiency virus 1, IIIB, MT4, 120 h
# Method in brief: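 MT-4 cells pre-infected with HIV-IIIb (0.004 m.o.i.) at 37 °C, then exposed to 3-fold serial compound dilutions (10 concentrations, quadruplicate) in RPMI 1640/10% FBS. After 5 days at 37 °C, viability read by CellTiter-Glo luminescence.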
row,SMILES,EC50
1,"Cc1cc2nc(N3CCOC(c4ccccc4)C3)sc2c(-c2ccc(Cl)cc2)c1[C@H](OC(C)(C)C)C(=O)O (stereo partly drawn) [Compound 327, (2S)-2-tert-butoxy-2-(7-(4-chlorophenyl)-5-methyl-2-(2-phenylmorpholino)benzo[d]thiazol-6-yl)acetic acid]",162 nM

# Same assay, conditions: Human immunodeficiency virus 1, IIIB, MT4, 120 h, Table 2; MT-4 cells infected with HIV-IIIb, 5 days of incubation, CellTiter-Glo; read-out: EC50
row,SMILES,EC50
1,"Cc1cc2nc(-c3ccc4nn(C5COC5)cc4c3)sc2c(-c2ccc(Cl)cc2)c1[C@H](OC(C)(C)C)C(=O)O [Compound 328, (S)-2-tert-butoxy-2-(7-(4-chlorophenyl)-5-methyl-2-(2-(oxetan-3-yl)-2H-indazol-5-yl)benzo[d]thiazol-6-yl)acetic acid]",44 nM
2,"Cc1cc2nc(-c3ccc4c(cnn4C4COC4)c3)sc2c(-c2ccc(Cl)cc2)c1[C@H](OC(C)(C)C)C(=O)O [Compound 329, (S)-2-tert-butoxy-2-(7-(4-chlorophenyl)-5-methyl-2-(1-(oxetan-3-yl)-1H-indazol-5-yl)benzo[d]thiazol-6-yl)acetic acid]",14 nM
3,"Cc1cc2nc(-c3ccc4c(c3)c(C(C)C)nn4C)sc2c(-c2ccc(Cl)cc2)c1[C@H](OC(C)(C)C)C(=O)O [Compound 330, (S)-2-tert-butoxy-2-(7-(4-chlorophenyl)-2-(3-isopropyl-1-methyl-1H-indazol-5-yl)-5-methylbenzo[d]thiazol-6-yl)acetic acid]",19 nM
4,COc1ccc(-c2cc(-c3nc4cc(C)c([C@H](OC(C)(C)C)C(=O)O)c(-c5ccc(Cl)cc5)c4s3)c(C)nn2)cc1OC [Compound 331],44 nM
5,Cc1cc2nc(-c3ccnc(N4CCC(C)(O)CC4)n3)sc2c(-c2ccc(Cl)cc2)c1[C@H](OC(C)(C)C)C(=O)O [Compound 332],5 nM
6,Cc1cc2nc(-c3ccnc(N4CCC(N(C)C)CC4)n3)sc2c(-c2ccc(Cl)cc2)c1[C@H](OC(C)(C)C)C(=O)O [Compound 334],5 nM
7,Cc1cc2nc(-c3cc(-c4ccc5c(cnn5C)c4)nnc3C)sc2c(-c2ccc(Cl)cc2)c1[C@H](OC(C)(C)C)C(=O)O [Compound 335],14 nM
8,Cc1cc2nc(-c3ccnc(N4CCN(C)C[C@@H]4C)n3)sc2c(-c2ccc(Cl)cc2)c1[C@H](OC(C)(C)C)C(=O)O [Compound 337],4 nM
9,COc1ccc(-c2cc(-c3nc4cc(C)c([C@H](OC(C)(C)C)C(=O)O)c(-c5ccc(Cl)cc5)c4s3)cnn2)cc1OC [Compound 338],11 nM
10,Cc1cc2nc(-c3ccnc(N4CCN(C5CC5)CC4)n3)sc2c(-c2ccc(Cl)cc2)c1[C@H](OC(C)(C)C)C(=O)O [Compound 339],11 nM
11,Cc1cc2nc(-c3ccnc(C4CCOCC4)n3)sc2c(-c2ccc(Cl)cc2)c1[C@H](OC(C)(C)C)C(=O)O [Compound 340],9 nM
12,Cc1cc2nc(-c3ccnc(C4=CCOCC4)n3)sc2c(-c2ccc(Cl)cc2)c1[C@H](OC(C)(C)C)C(=O)O [Compound 341],14 nM
13,Cc1cc2nc(-c3ccnc(C4=CCN(C)CC4)n3)sc2c(-c2ccc(Cl)cc2)c1[C@H](OC(C)(C)C)C(=O)O [Compound 342],5 nM
14,Cc1cc2nc(-c3ccnc(N4CCOCC4)n3)sc2c(-c2ccc(Cl)cc2)c1[C@H](OC(C)(C)C)C(=O)O [Compound 343],26 nM
15,Cc1cc2nc(-c3ccnc(N4CCN(C)CC4)n3)sc2c(-c2ccc(Cl)cc2)c1[C@H](OC(C)(C)C)C(=O)O [Compound 344],6 nM
16,COc1cc(-c2cc(-c3nc4cc(C)c([C@H](OC(C)(C)C)C(=O)O)c(-c5ccc(Cl)cc5)c4s3)ccn2)cnc1OC [Compound 345],28 nM
17,Cc1cc2nc(-c3ccnc(-c4cnn(C(C)(C)C)c4)n3)sc2c(-c2ccc(Cl)cc2)c1[C@H](OC(C)(C)C)C(=O)O [Compound 346],11 nM

# Other lines, results leading:
row,EC50,SMILES
1,42 nM,Cc1cc2nc(-c3ccnc(-c4cnn(C)c4C)n3)sc2c(-c2ccc(Cl)cc2)c1[C@H](OC(C)(C)C)C(=O)O [Compound 347]
2,30 nM,Cc1cc2nc(-c3ccc4c(cnn4C4CCOCC4)c3)sc2c(-c2ccc(Cl)cc2)c1[C@H](OC(C)(C)C)C(=O)O [Compound 348]
3,42 nM,Cc1cc2nc(-c3ccc4[nH]ncc4c3)sc2c(-c2ccc(Cl)cc2)c1[C@H](OC(C)(C)C)C(=O)O [Compound 349]
4,14 nM,COc1ccc(-c2cc(-c3nc4cc(C)c([C@H](OC(C)(C)C)C(=O)O)c(-c5ccc(Cl)cc5)c4s3)ccn2)cc1OC [Compound 350]
5,21 nM,CCn1ncc2cc(-c3nc4cc(C)c([C@H](OC(C)(C)C)C(=O)O)c(-c5ccc(Cl)cc5)c4s3)ccc21 [Compound 351]
6,29 nM,CCCn1ncc2cc(-c3nc4cc(C)c([C@H](OC(C)(C)C)C(=O)O)c(-c5ccc(Cl)cc5)c4s3)ccc21 [Compound 352]
7,31 nM,Cc1cc2nc(-c3ccc4c(cnn4C(C)C)c3)sc2c(-c2ccc(Cl)cc2)c1[C@H](OC(C)(C)C)C(=O)O [Compound 353]
8,1370 nM,Cc1cc2nc(-c3ccc(-c4ccc(Br)cc4)cc3)sc2c(-c2ccc(Cl)cc2)c1[C@H](OC(C)(C)C)C(=O)O [Compound 354]
9,182 nM,COc1ncc(-c2ccc(-c3nc4cc(C)c([C@H](OC(C)(C)C)C(=O)O)c(-c5ccc(Cl)cc5)c4s3)cc2)cn1 [Compound 355]
10,3330 nM,Cc1cc2nc(-c3ccc(-c4cnc(=O)[nH]c4)cc3)sc2c(-c2ccc(Cl)cc2)c1[C@H](OC(C)(C)C)C(=O)O [Compound 356]
11,12 nM,Cc1cc2nc(-c3nccc(-c4ccc5c(cnn5C)c4)n3)sc2c(-c2ccc(Cl)cc2)c1[C@H](OC(C)(C)C)C(=O)O [Compound 357]
12,241 nM,Cc1cc2nc(-c3ccc4c(n3)c(C)nn4C)sc2c(-c2ccc(Cl)cc2)c1[C@H](OC(C)(C)C)C(=O)O [Compound 358]
13,21 nM,Cc1cc2nc(-c3ccc4nn(C)c(C)c4n3)sc2c(-c2ccc(Cl)cc2)c1[C@H](OC(C)(C)C)C(=O)O [Compound 359]
14,13 nM,Cc1cc2nc(-c3ccc4nn(C5CCN(C)CC5)cc4n3)sc2c(-c2ccc(Cl)cc2)c1[C@H](OC(C)(C)C)C(=O)O [Compound 360]
15,20 nM,Cc1cc2nc(-c3ccc4c(cnn4C4CCN(C)CC4)n3)sc2c(-c2ccc(Cl)cc2)c1[C@H](OC(C)(C)C)C(=O)O [Compound 361]
16,21 nM,Cc1cc2nc(-c3c4cnccc4nn3C)sc2c(-c2ccc(Cl)cc2)c1[C@H](OC(C)(C)C)C(=O)O [Compound 362]
17,15 nM,Cc1cc2nc(-c3nn(C)c4ccncc34)sc2c(-c2ccc(Cl)cc2)c1[C@H](OC(C)(C)C)C(=O)O [Compound 363]
18,9 nM,Cc1cc2nc(-c3cc4cn(C)nc4cn3)sc2c(-c2ccc(Cl)cc2)c1[C@H](OC(C)(C)C)C(=O)O [Compound 364]
19,29 nM,Cc1cc2nc(-c3cc4cnn(C)c4cn3)sc2c(-c2ccc(Cl)cc2)c1[C@H](OC(C)(C)C)C(=O)O [Compound 365]
20,6 nM,Cc1cc2nc(-c3ccc4nn(C)cc4n3)sc2c(-c2ccc(Cl)cc2)c1[C@H](OC(C)(C)C)C(=O)O [Compound 366]
21,6 nM,Cc1cc2nc(-c3ccc4c(cnn4C)n3)sc2c(-c2ccc(Cl)cc2)c1[C@H](OC(C)(C)C)C(=O)O [Compound 367]
22,5 nM,Cc1cc2nc(-c3ccnc(-c4cc5cn(C)nc5cn4)c3)sc2c(-c2ccc(Cl)cc2)c1[C@H](OC(C)(C)C)C(=O)O [Compound 368]
23,8 nM,Cc1cc2nc(-c3ccnc(-c4cc5cnn(C)c5cn4)c3)sc2c(-c2ccc(Cl)cc2)c1[C@H](OC(C)(C)C)C(=O)O [Compound 369]
